{"source": "ChEMBL document CHEMBL1133210", "about": "“Synthesis of tetrakis(multifluoro-4-pyridyl)porphin derivatives as acetylcholinesterase inhibitors” (Bioorg Med Chem Lett, 2000)", "key": {"[1]": {"biological_target": "Acetylcholinesterase (Electrophorus electricus, UniProt O42275)", "sequence (O42275 whole entry)": "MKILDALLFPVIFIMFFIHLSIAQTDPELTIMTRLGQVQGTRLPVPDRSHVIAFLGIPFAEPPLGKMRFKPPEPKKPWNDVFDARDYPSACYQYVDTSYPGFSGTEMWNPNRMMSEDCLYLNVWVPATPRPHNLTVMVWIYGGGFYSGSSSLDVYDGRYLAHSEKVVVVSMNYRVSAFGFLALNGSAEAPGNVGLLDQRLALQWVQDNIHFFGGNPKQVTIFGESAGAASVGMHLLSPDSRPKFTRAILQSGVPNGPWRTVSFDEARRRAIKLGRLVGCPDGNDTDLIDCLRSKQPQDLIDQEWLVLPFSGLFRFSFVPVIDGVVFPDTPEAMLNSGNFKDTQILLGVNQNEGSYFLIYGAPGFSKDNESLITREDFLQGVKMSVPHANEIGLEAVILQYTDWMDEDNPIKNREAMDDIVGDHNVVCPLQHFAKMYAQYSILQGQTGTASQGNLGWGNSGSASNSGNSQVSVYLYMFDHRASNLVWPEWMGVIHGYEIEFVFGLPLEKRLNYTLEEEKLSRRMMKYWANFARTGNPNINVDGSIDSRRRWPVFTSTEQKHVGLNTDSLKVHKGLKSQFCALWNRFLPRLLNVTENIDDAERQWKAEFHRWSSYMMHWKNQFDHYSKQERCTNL", "test": "Inhibition constant (Ki) against electric eel Acetylcholinesterase as Km/Vmax versus inhibitor concentration replot"}, "[2]": {"test_system": "Gallus gallus", "test": "Compound was tested in vivo for antiangiogenic activity (10 microg dose/ egg) on chorioallantoic membrane of growing chick embryos", "type": "functional"}}, "note": "pKi: −log10 of the molar value.", "data": [{"smiles": "Fc1ccc(-c2c3nc(c(-c4ccc(F)cc4F)c4ccc([nH]4)c(-c4ccc(F)cc4F)c4ccc([nH]4)c(-c4ccc(F)cc4F)c4nc2C=C4)C=C3)c(F)c1", "values": [{"measurement": "pKi", "setting": "[1]", "result": 7.92}]}, {"smiles": "C[n+]1ccc(-c2c3nc(c(-c4cc[n+](C)cc4F)c4ccc([nH]4)c(-c4cc[n+](C)cc4F)c4ccc([nH]4)c(-c4cc[n+](C)cc4F)c4nc2C=C4)C=C3)c(F)c1.Cc1ccc(S(=O)(=O)[O-])cc1.Cc1ccc(S(=O)(=O)[O-])cc1.Cc1ccc(S(=O)(=O)[O-])cc1.Cc1ccc(S(=O)(=O)[O-])cc1", "values": [{"measurement": "Inhibition", "setting": "[2]", "result": 60, "unit": "%"}, {"measurement": "pKi", "setting": "[1]", "result": 5.51}]}, {"smiles": "Fc1cccc(F)c1-c1c2nc(c(-c3c(F)cccc3F)c3ccc([nH]3)c(-c3c(F)cccc3F)c3ccc([nH]3)c(-c3c(F)cccc3F)c3nc1C=C3)C=C2", "values": [{"measurement": "pKi", "setting": "[1]", "result": 8.30}]}, {"smiles": "Fc1cnc(F)c(F)c1-c1c2nc(c(-c3c(F)cnc(F)c3F)c3ccc([nH]3)c(-c3c(F)cnc(F)c3F)c3ccc([nH]3)c(-c3c(F)cnc(F)c3F)c3nc1C=C3)C=C2", "values": [{"measurement": "pKi", "setting": "[1]", "result": 5.55}]}, {"smiles": "Oc1ccccc1-c1c2nc(c(-c3ccccc3O)c3ccc([nH]3)c(-c3ccccc3O)c3ccc([nH]3)c(-c3ccccc3O)c3nc1C=C3)C=C2", "values": [{"measurement": "pKi", "setting": "[1]", "result": 4.74}]}, {"smiles": "Fc1cccc(-c2c3nc(c(-c4cccc(F)c4)c4ccc([nH]4)c(-c4cccc(F)c4)c4ccc([nH]4)c(-c4cccc(F)c4)c4nc2C=C4)C=C3)c1", "values": [{"measurement": "pKi", "setting": "[1]", "result": 5.01}]}, {"smiles": "Fc1nc(F)c(F)c(-c2c3nc(c(-c4c(F)c(F)nc(F)c4F)c4ccc([nH]4)c(-c4c(F)c(F)nc(F)c4F)c4ccc([nH]4)c(-c4c(F)c(F)nc(F)c4F)c4nc2C=C4)C=C3)c1F", "values": [{"measurement": "pKi", "setting": "[1]", "result": 5.14}]}, {"smiles": "Oc1ccc(O)c(-c2c3nc(c(-c4cc(O)ccc4O)c4ccc([nH]4)c(-c4cc(O)ccc4O)c4ccc([nH]4)c(-c4cc(O)ccc4O)c4nc2C=C4)C=C3)c1", "values": [{"measurement": "pKi", "setting": "[1]", "result": 5.60}]}, {"smiles": "Oc1cccc(-c2c3nc(c(-c4cccc(O)c4)c4ccc([nH]4)c(-c4cccc(O)c4)c4ccc([nH]4)c(-c4cccc(O)c4)c4nc2C=C4)C=C3)c1", "values": [{"measurement": "pKi", "setting": "[1]", "result": 4.53}]}, {"smiles": "Fc1ccccc1-c1c2nc(c(-c3ccccc3F)c3ccc([nH]3)c(-c3ccccc3F)c3ccc([nH]3)c(-c3ccccc3F)c3nc1C=C3)C=C2", "values": [{"measurement": "pKi", "setting": "[1]", "result": 4.29}]}, {"smiles": "Fc1cnccc1-c1c2nc(c(-c3ccncc3F)c3ccc([nH]3)c(-c3ccncc3F)c3ccc([nH]3)c(-c3ccncc3F)c3nc1C=C3)C=C2", "values": [{"measurement": "pKi", "setting": "[1]", "result": 5.29}]}]}
